{"source": "patent US10300070B2", "about": "“Metabolically-activated drug conjugates to overcome resistance in cancer therapy” (The Brigham and Women's Hospital, Inc., priority 2014, dated 2019)", "molecules": {"B1": {"name": "catalase: an endogenous modulator of redox stress (protein, UniProt P04040 2-527, looked up)", "Catalase": "ADSRDPASDQMQHWKEQRAAQKADVLTTGAGNPVGDKLNVITVGPRGPLLVQDVVFTDEMAHFDRERIPERVVHAKGAGAFGYFEVTHDITKYSKAKVFEHIGKKTPIAVRFSTVAGESGSADTVRDPRGFAVKFYTEDGNWDLVGNNTPIFFIRDPILFPSFIHSQKRNPQTHLKDPDMVWDFWSLRPESLHQVSFLFSDRGIPDGHRHMNGYGSHTFKLVNANGEAVYCKFHYKTDQGIKNLSVEDAARLSQEDPDYGIRDLFNAIATGKYPSWTFYIQVMTFNQAETFPFNPFDLTKVWPHKDYPLIPVGKLVLNRNPVNYFAEVEQIAFDPSNMPPGIEASPDKMLQGRLFAYPDTHRHRLGPNYLHIPVNCPYRARVANYQRDGPMCMQDNQGGAPNYYPNSFGAPEQQPSALEHSIQYSGEVRRFNTANDDNVTQVRAFYVNVLNEEQRKRLCENIAGHLKDAQIFIQKKAVKNFTEVHPDYGSHIQALLDKYNAEKPKNAIHTFVQSGSHLAAREKANL"}}, "key": {"[1]": {"settings": "20 mg/kg equivalent, 24 h, heterotopic 4T-1 model", "quoted_text": "(§2) An in-vivo study was designed creating drug-schedules following successive doses of docetaxel at MTD or vehicle control in distinct groups. […] Finally, in effort to dissect the dosing-response of MADC vs. free drugs, a dose-titration of doxorubicin+PI103 or MADC in sequence with docetaxel was performed. […] Finally, a preliminary bio distribution study of the free doxorubicin or conjugate was performed on heterotopically-implanted 4T-1 syngeneic mammary carcninoma model. Mice were treated with 20 mg/kg equivalent of MADC or Doxorubicin or a vehicle control group (N=3 per group). […] Organ lysate was then centrifuged at 15,000 g and supernatant was filtered through a 0.2 mm filter syringe before aliquoted into quadruplicate wells of a 96-well plate. […] Autofluorescence determined from vehicle-treated control groups was subtracted from experimental groups and final fluorescence was determined as % arbitrary fluorescence units (AFU)/mg tissue as % increase from vehicle treated control values."}, "mice": {"tested_on": "mice", "test": "Systemic toxicity in treated 4T-1 tumor-bearing mice (hair and weight loss, spleen, heart caspase-3)", "format": "in vivo", "quoted_text": "as §2"}, "[2]": {"tested_on": "4T-1 mouse mammary carcinoma", "format": "in vivo, mice", "quoted_text": "Tumor volumes were assessed by the following formula: (Width×Width×length)/2 and values were utilized to calculate tumor specific growth rate (SGR) by the algorhythm (ln [V2/V1]/[t2−t1)] where V=volume and t=time in days^64.\nAn in-vivo study was designed creating drug-schedules following successive doses of docetaxel at MTD or vehicle control in distinct groups. […] Finally, in effort to dissect the dosing-response of MADC vs. free drugs, a dose-titration of doxorubicin+PI103 or MADC in sequence with docetaxel was performed."}, "DTC": {"tested_on": "DTC", "test": "Total intracellular reduced glutathione (GSH) in drug tolerant cells", "format": "cell-based", "settings": "acute (3 hours) exposure; ML-265 10 μM, catalase 2000 U/ml", "experimental": "In vitro detection of glucose uptake was performed using 2-(N-7-Nitrobenz-2-oxa-1,3-diazol-4-yl)Amino)-2-Deoxyglucose (2-NBDG) (Invitrogen, Carlsbad Calif.), dissolved in DMSO to 50 mM. Cells were pre-treated with kinase inhibitors or vehicle for 3 hours in glucose- and phenol red-free media before addition of 50 μM 2-NBDG and subsequently read by FACS ex/em 488/535 nm. ROS was determined by pre-loading cells with CM-DCFDA (1 μM), washed 2 times with PBS and subsequently treated with H2O2 or vehicle; when kinase inhibitors were included in treatment, cells were first incubated with inhibitor for 3 hours prior to CM-DCFDA loading. Fluorescence was then determined by FACS ex/em 488/535 nm. For the following assays, cells were trypsinized and counted by Nexcelom cell counter (Lawrence, Mass.) prior to being subjected to analysis in order to achieve a quantitative value per cell: Reduced glutathione was determined using a colorimetric glutathione recycling system by DTNB following manufacturer protocol (Biovision, Milpitas Calif.). […] Protein synthesis was measured by two means 1. […] Fluorescence was detected by FACS as described below. […] GFP protein translation was determined by fluorescent microscopy. […] Individual cells were evaluated for fluorescent intensity of caspase-3 activity (red signal intensity) and green fluorescent protein intensity. […]"}, "[3]": {"tested_on": "explant tumor tissue from taxane-refractory breast cancer patients", "test": "Human refractory breast cancer explant model, glucose uptake", "format": "cell-based", "settings": "chemotherapy in the presence of hexokinase inhibition, 72 h", "experimental": "Anonymous human breast cancer tissues (N=7) from patients refractory to taxane-containing regimens and varying stages of disease were obtained from Mitra Biotech collected under IRB approval from HCG Bangalore Institute of Oncology with due consent. Fresh tumor tissues were collected from breast cancer patients immediately after surgical resection at HCG cancer hospital, Bangalore, India. The tumor samples were transported to the laboratory at 4° C., in appropriate transport buffer within 60 minutes post-resection, for ex-vivo studies and molecular and pathological evaluation. Tissues were cut into thin sections and cultured in 96 well plate using optimized conditions[BISWANATH REF]. Tumors were treated with a taxane, or doxorubicin at Cmax for 72 h. DMSO was used as a vehicle control. After treatment, tumor cell viability was measured. Immunohistochemistry (IHC) was performed as described in methods. Glucose uptake was evaluated 72 h post culture.\nGlucose uptake assay was carried 72 hours post culture. Two micro liter of culture supernatant was added to 200 μl of Glucose reagent (Liquixx Glucose Reagent, Erbaa). All readings along with glucose standard (100 mg/dL) were run in triplicate. The plate was incubated at room temperature for 5 minutes on a plate shaker at medium speed and the absorbance was measured at 505 nm using multimode plate reader (Perkin Elmer)."}, "MDA-MB-231 parent or DTC [4]": {"tested_on": "MDA-MB-231 parent or DTC", "test": "Cell viability (MTS) and trypan blue exclusion of parent or DTC treated with doxorubicin", "format": "cell-based", "settings": "co-incubated with dox, 48 h", "experimental": "(§1) MDA-MB-231 (ATCC), MDA-MB-468 and 4T-1 mammary carcinoma cells (ATCC) were cultured in DMEM containing 10% Fetal Bovine Serum (FBS) at 37 C and 5% CO2. DU145 and DU145-TxR were provided by A. Mizokami^63 and cultured in DMEM containing 10% FBS, resistant line included 100 nM paclitaxel in the culture media. During treatments with chemotherapeutics, cells were grown to semi-confluence and treated with indicated concentrations of chemotherapy in serum-containing medium for indicated time points. When small molecule inhibitors were included in treatments, they were added simultaneously with chemotherapy. For siRNA gene knockdown, cells were transfected with silencer-select siRNA plasmids (Ambion, Invitrogen, Grand Island, N.Y.) pan-CD44(1) (s2682) panCD44(2) (s2681), siHIF1A (s6539) using lipofectamine 2000 (Invitrogen, Carlsbad Calif.) following manufacturer protocol and cultured for 72 hours prior to treatment. Scrambled siRNA was used as a control. For chemotherapy treatment experiments: Cancer cells were plated at a density of 0.5-1×10^5 cells/ml and allowed to adhere for 24-48 hr. When cells reached ˜70% confluency they were treated with cytotoxics at indicated concentrations for 24-48 hours and utilized for subsequent assays. For experiments in which a shorter incubation was used (i.e. 15 min-4 hours) fresh media was added 24 hours prior to addition of chemotherapy suspended to stock concentration in PBS. For generation of DTC: Cells were treated for 48 hours with chemotherapy. Following washes with PBS, adherent cells were trypsinized and re-plated at a density of 1.5-2×10^5 cells/ml and cultured in serum-containing medium. After 24 hours incubation, floating cells were removed and remaining cells were washed with 1× PBS and considered as chemotherapy-tolerant cells. A population of drug naïve parent cells were always cultured alongside DTC and fresh media was added at every interval that experimental population (DTC) received fresh media.\nFollowing drug incubation, cells were washed and suspended in phenol red-free RPMI or DMEM and subsequently treated with MTS reagent using manufacturer protocol (Promega, Madison, Wis.). Trypan blue exclusion was used to validate experiments and evaluate % of dead cells performed by bright field microscopy."}, "ROS (hydrogen peroxide)": {"tested_on": "ROS (hydrogen peroxide)", "settings": "10-20 uM of paclitaxel; cited from earlier work"}, "MDA-MB-231 parent or DTC [5]": {"tested_on": "MDA-MB-231 parent or DTC", "test": "Glucose uptake (2-NBDG) determined by FACS", "format": "cell-based", "settings": "MDA-MB-231 DTC incubated with catalase for 6 hours", "experimental": "as §1\nIn vitro detection of glucose uptake was performed using 2-(N-7-Nitrobenz-2-oxa-1,3-diazol-4-yl)Amino)-2-Deoxyglucose (2-NBDG) (Invitrogen, Carlsbad Calif.), dissolved in DMSO to 50 mM. Cells were pre-treated with kinase inhibitors or vehicle for 3 hours in glucose- and phenol red-free media before addition of 50 μM 2-NBDG and subsequently read by FACS ex/em 488/535 nm. ROS was determined by pre-loading cells with CM-DCFDA (1 μM), washed 2 times with PBS and subsequently treated with H2O2 or vehicle; when kinase inhibitors were included in treatment, cells were first incubated with inhibitor for 3 hours prior to CM-DCFDA loading. Fluorescence was then determined by FACS ex/em 488/535 nm. For the following assays, cells were trypsinized and counted by Nexcelom cell counter (Lawrence, Mass.) prior to being subjected to analysis in order to achieve a quantitative value per cell: Reduced glutathione was determined using a colorimetric glutathione recycling system by DTNB following manufacturer protocol (Biovision, Milpitas Calif.). ATP analysis was performed using the ATP colorimetric analysis kit (Biovision) according to manufacturer protocol. Reductive stress was detected using the Enzo nitroreductase hypoxia kit (Enzo Life Sciences, Ann Arbor Mich.) following manufacturer protocol and visualized by fluorescent microscopy; a set of non-docetaxel-treated control cells loaded with fluorescent probe were compared against docetaxel-treated cells to derive a % redox stress increase which was calculated as fluorescence intensity of nitroreductase probe per cell and expressed as increase from vehicle. Protein synthesis was measured by two means 1. L-azidohomoalanine amino acid analog of methionine containing an azide moiety was added to cultured cells (parent or DTC) for 3 hours which is incorporated into proteins during active protein synthesis. […]"}}, "data": [{"molecule": "COc1cccc2c1C(=O)c1c(O)c3c(c(O)c1C2=O)C[C@@](O)(C(=O)COC(=O)NCCSSCCNC(=O)Oc1cccc(-c2nc(N4CCOCC4)c4oc5ncccc5c4n2)c1)CC3OC1C[C@@H](C)[C@@H](O)[C@@H](N)C1", "note": "(stereo partly shown) [MADC]", "values": [{"measurement": "biodistribution (organ accumulation by fluorescence)", "setting": "[1]", "value": "greater concentration of the conjugate in the lung compared to the free drug administration"}, {"measurement": "systemic toxicity (toxic burden)", "setting": "mice; MADC vs. free drug combination groups", "value": "significant reduction of toxic burden"}, {"measurement": "hair and weight loss and myelosuppression indicated by splenic miniaturization", "setting": "mice; MADC-treated cohorts vs free drug combination", "value": "significantly attenuated"}, {"measurement": "splenic miniaturization in dose-titration", "setting": "mice; lower concentration (3 mg/kg), in sequence with docetaxel", "value": "negligible"}, {"measurement": "cardiotoxicity (activated caspase-3, immunoblots of whole heart lysate)", "setting": "mice; mouse, in vivo", "value": "lower indication of cardiotoxicity"}, {"measurement": "tumor growth suppression, in sequence with docetaxel", "setting": "[2]; given after successive doses of docetaxel at MTD", "value": "elicited suppression of tumor growth, largely comparable to the combination of free drugs in similar sequence"}, {"measurement": "tumor growth suppression, in sequence with vehicle", "setting": "[2]; given after vehicle control", "value": "operated poorly to suppress tumor growth"}, {"measurement": "dose-titration, tumor growth, lower concentration", "setting": "[2]; in sequence with docetaxel, 3 mg/kg", "value": "greater effect than free drug combination"}, {"measurement": "dose-titration, tumor growth, 5 mg/kg and 10 mg/kg", "setting": "[2]; in sequence with docetaxel, 5 mg/kg and 10 mg/kg", "value": "saturating concentrations"}]}, {"molecule": "Cn1c2cc([S+](C)[O-])sc2c2cnn(Cc3cccc(N)c3)c(=O)c21", "note": "(stereo not shown) [ML-265]", "values": [{"measurement": "total levels of reduced glutathione (GSH) in DTC", "setting": "DTC", "value": "diminished total levels of reduced glutathione in DTC"}]}, {"molecule": "O=C(O)c1nn(Cc2ccc(Cl)cc2Cl)c2ccccc12", "note": "[Lonidamine]", "values": [{"measurement": "glucose uptake of explant tumor tissue", "setting": "[3]", "value": "diminished capacity for glucose uptake"}, {"measurement": "response to dox in combination with inhibitor, DTC", "setting": "MDA-MB-231 parent or DTC [4]; DTC, PI103 5 μM, lonidamine 10 μM, KB-458 and KB-697 10 μM", "value": "exquisitely responsive, overtly driven to cell death by dox in combination"}, {"measurement": "response to dox in combination with inhibitor, parent cells", "setting": "MDA-MB-231 parent or DTC [4]; drug naïve parent cells", "value": "little synergism or a reversion of synergy"}]}, {"molecule": "CC(=O)O[C@H]1C(=O)[C@@]2(C)[C@H]([C@H](OC(=O)c3ccccc3)[C@]3(O)C[C@H](OC(=O)[C@H](O)[C@@H](NC(=O)c4ccccc4)c4ccccc4)C(C)=C1C3(C)C)[C@]1(OC(C)=O)CO[C@@H]1C[C@@H]2O", "note": "[paclitaxel]", "values": [{"measurement": "increase from basal ROS levels", "setting": "ROS (hydrogen peroxide)", "value": "3-5 ×"}]}, {"molecule": "B1", "values": [{"measurement": "glucose consumption (2NBDG uptake) in DTC", "setting": "MDA-MB-231 parent or DTC [5]", "value": "reduced potential for glucose consumption"}, {"measurement": "total levels of reduced glutathione (GSH) in DTC", "setting": "DTC", "value": "diminished total levels of reduced glutathione in DTC"}]}]}
